Test: Bioavailability enhancement: drug, nutraceutical or herbal product given alone or with bioenhancer (BE) to fasted rats, blood (plasma) levels 0-24 hrs by HPLC
Conditions: drug + BE from Cuminum cyminum (extract 16 mg/kg or fraction, rats) vs drug alone
Experimental: • 1. Bioenhancers (BEs) from Cuminum cyminum means either the aqueous, or 50% alcoholic extract or fractions No. 1 to 5. • 2. Piperine as Bioenhancer (BE) from Piper species means the molecule with characteristics as described in Example 2 of this invention. • 3.
• (i) Bioenhancer (BE) from Cuminum cyminum • Extract: 16 mg/kg body weight (Rats) • Fraction No. 1: 02–5 mg/kg body weight (rats) • Fraction No.2: 13-mg/kg body weight (Rats) • Fraction No. 3: 8 mg/kg body weight (Rats) • Fraction No. 4: 5 mg/kg body weight (Rats) • Fraction No. 5: 2.5 to 5 mg/kg body weight (Rats) • (ii) Piperine: 8 mg/kg body weight (Rats) As an example of an experiment in Rat (fasted): • Drug: Rifampicin, 40 mg/kg • BE (Cuminum cyminum): Doses as in Example No. 5 above. • BE (Cuminum cyminum)+Piperine: Doses as in Example No. 5 above.
Experimental procedure: Drug alone/or in combination with BE was administered to rats as per the following design: • Group 1: Control • Group 2: Rifampicin alone • Group 3: BE alone • Group 4: Rifampicin+BE (Cuminum cyminum) • Group 5: Rifampicin+BE (C. cyminum+piperine)
Blood from control/treated animals at predetermined intervals (0–24 hrs) (Total 14 timings). Rifampicin was extracted from the blood (plasma) using dichloromethane. The concentration of rifampicin in the samples was determined using HPLC (Model: Shimadzu 1080 BP); PDA detector; Mobile phase: phosphate buffer: acetonitile (40:60); Flow rate 1.0 ml/min. Column RP 18.
Control and BE only groups were employed to study the interference of plasma component and the bioenhancer used.
List of drugs, nutraceuticals, herbal formulations cited below as some of the example for the purpose of present invention.

| SMILES | % Enhancement in bioavailability, BE from Cuminum cyminum |
| --- | --- |
| Cc1nnc2n1-c1ccc(Cl)cc1C(c1ccccc1)=NC2 [Alprazolam] | 60% |

Same assay, conditions: drug + piperine (8 mg/kg, rats) vs drug alone

| SMILES | % Enhancement in bioavailability, Piperine as BE |
| --- | --- |
| Cc1nnc2n1-c1ccc(Cl)cc1C(c1ccccc1)=NC2 [Alprazolam] | 98% |

Same assay, conditions: drug + piperine + active molecule (rats) vs drug alone

| SMILES | % Enhancement in bioavailability, Piperine + Active molecule |
| --- | --- |
| Cc1nnc2n1-c1ccc(Cl)cc1C(c1ccccc1)=NC2 [Alprazolam] | 104% |

Same assay, conditions: rat, in vivo

| SMILES | % Enhancement in bioavailability, Piperine + Active molecule | % Enhancement in bioavailability, Piperine + BE from Cuminum cyminum |
| --- | --- | --- |
| C=CC[C@@H]1/C=C(\C)C[C@H](C)C[C@H](OC)[C@H]2O[C@@](O)(C(=O)C(=O)N3CCCC[C@H]3C(=O)O[C@H](/C(C)=C/[C@@H]3CC[C@@H](O)[C@H](OC)C3)[C@H](C)[C@@H](O)CC1=O)[C@H](C)C[C@@H]2OC [Tacrolimus] | 117% |  |
| Nc1nc2c(ncn2COCCO)c(=O)[nH]1 [Acyclovir] | 98% |  |
| NC(=O)c1cnccn1 [Pyrazinamide] | Nil |  |
| CN(Cc1cc(Br)cc(Br)c1N)C1CCCCC1 [Bromhexine] | 90% |  |
| NCC[C@H](O)C(=O)N[C@@H]1C[C@H](N)[C@@H](O[C@H]2O[C@H](CN)[C@@H](O)[C@H](O)[C@H]2O)[C@H](O)[C@H]1O[C@H]1O[C@H](CO)[C@@H](O)[C@H](N)[C@H]1O [Amikacin] | Nil |  |
| Cc1cn([C@H]2C[C@H](N=[N+]=[N-])[C@@H](CO)O2)c(=O)[nH]c1=O [Zidovudine] | 415% |  |
| C=CC1=C(C(=O)O)N2C(=O)[C@@H](NC(=O)/C(=N\OCC(=O)O)c3csc(N)n3)[C@H]2SC1 [Cefixime] |  | Nil |
| NCCCC[C@H](N[C@@H](CCc1ccccc1)C(=O)O)C(=O)N1CCC[C@H]1C(=O)O [Lisinopril] | 98% |  |
| CCn1cc(C(=O)O)c(=O)c2cc(F)c(N3CCNCC3)cc21 [Norfloxacin] | Negligible |  |
| CC(C)NCC(O)COc1cccc2ccccc12 (stereo not shown) [Propranolol] | 210% |  |
| Cn1c(=O)c2[nH]cnc2n(C)c1=O [Theophylline] | 75% |  |
| CN1C(C(=O)Nc2ccccn2)=C(O)c2ccccc2S1(=O)=O [Piroxicam] | 107% |  |
| CCc1cc(C(N)=S)ccn1 [Ethionamide] | 65% |  |
| CC1(C)S[C@@H]2[C@H](NC(=O)[C@H](N)c3ccc(O)cc3)C(=O)N2[C@H]1C(=O)O [Amoxycillin] | 98% |  |
| O=C(CCCN1CCC(O)(c2ccc(Cl)cc2)CC1)c1ccc(F)cc1 [Haloperidol] | Nil |  |
| CC(C)(C)NCC(O)c1ccc(O)c(CO)c1 (stereo not shown) [Salbutamol] | 85% |  |
| CC1=C(C(=O)O)N2C(=O)[C@@H](NC(=O)[C@H](N)c3ccc(O)cc3)[C@H]2SC1 [Cefadroxil] |  | 79% |
| CC(=O)N1CCN(c2ccc(OCC3COC(Cn4ccnc4)(c4ccc(Cl)cc4Cl)O3)cc2)CC1 (stereo not shown) [Ketoconazole] | 156% |  |
| CC[C@H]1OC(=O)[C@H](C)[C@@H](O[C@H]2C[C@@](C)(OC)[C@@H](O)[C@H](C)O2)[C@H](C)[C@@H](O[C@@H]2O[C@H](C)C[C@H](N(C)C)[C@H]2O)[C@](C)(O)C[C@@H](C)CN(C)[C@H](C)[C@@H](O)[C@]1(C)O [Azithromycin] | 97% |  |
| NNC(=O)c1ccncc1 [Isoniazid] | Negligible |  |

| SMILES | % Enhancement in bioavailability, Piperine + Active molecule | % Enhancement in bioavailability, Piperine + BE from Cuminum cyminum |
| --- | --- | --- |
| CN/C(=N/CCSCc1nc[nH]c1C)NC#N [Cimetidine] |  | 105% |
| N[C@@H]1CON=C1O [Cycloserine] | 90% |  |
| CC[C@H]1OC(=O)[C@H](C)[C@@H](O[C@H]2C[C@@](C)(OC)[C@@H](O)[C@H](C)O2)[C@H](C)[C@@H](O[C@@H]2O[C@H](C)C[C@H](N(C)C)[C@H]2O)[C@](C)(O)C[C@@H](C)C(=O)[C@H](C)[C@@H](O)[C@]1(C)O [Erythromycin] | 95% |  |
| CC[C@@H](CO)NCCN[C@@H](CC)CO [Ethambutol] | Nil |  |
| O=C(O)Cc1ccccc1Nc1c(Cl)cccc1Cl [Diclofenac] | 108% |  |
| CO/N=C(\C(=O)N[C@@H]1C(=O)N2C(C(=O)O)=C(CSc3nc(=O)c(O)nn3C)CS[C@H]12)c1csc(N)n1 [Cefatrioxone] |  | Nil |
| Nc1ccc(S(=O)(=O)c2ccc(N)cc2)cc1 [Dapsone] | 75% |  |
| COc1ccc2[nH]c([S+]([O-])Cc3ncc(C)c(OC)c3C)nc2c1 (stereo not shown) [Omeprazole] |  | Nil |
| CC1COc2c(N3CCN(C)CC3)c(F)cc3c(=O)c(C(=O)O)cn1c23 (stereo not shown) [O-floxacin, Ofloxacin] | 73% |  |
| CC[C@H]1OC(=O)[C@H](C)[C@@H](O[C@H]2C[C@@](C)(OC)[C@@H](O)[C@H](C)O2)[C@H](C)[C@@H](O[C@@H]2O[C@H](C)C[C@H](N(C)C)[C@H]2O)[C@](C)(O)C[C@@H](C)/C(=N\OCOCCOC)[C@H](C)[C@@H](O)[C@]1(C)O [Roxythromycin] | 103% |  |
| CCOC(=O)C1=C(COCCN)NC(C)=C(C(=O)OC)C1c1ccccc1Cl (stereo not shown) [Amlodipine] | 103% |  |
| CN(Cc1cnc2nc(N)nc(N)c2n1)c1ccc(C(=O)N[C@@H](CCC(=O)O)C(=O)O)cc1 [Methotrexate] | 30% |  |
| CS(=O)(=O)Nc1ccc([N+](=O)[O-])cc1Oc1ccccc1 [Nimesulide] | 150% |  |
| CNC(=C[N+](=O)[O-])NCCSCc1ccc(CN(C)C)o1 [Ranitidine] |  | 89% |
| CO[C@H]1/C=C/O[C@@]2(C)Oc3c(C)c(O)c4c(O)c(c(/C=N/N5CCN(C)CC5)c(O)c4c3C2=O)NC(=O)/C(C)=C\C=C\[C@H](C)[C@H](O)[C@@H](C)[C@@H](O)[C@@H](C)[C@H](OC(C)=O)[C@@H]1C [Rifampicin] | 366% |  |
| COc1cccc2c1C(=O)c1c(O)c3c(c(O)c1C2=O)C[C@@](O)(C(=O)CO)C[C@@H]3O[C@H]1C[C@H](N)[C@H](O)[C@H](C)O1 [Doxorubicin] | 103% |  |
| O=c1[nH]cc(F)c(=O)[nH]1 [5-Fluorouracil] | 435% |  |
| COc1c(C)c2c(c(O)c1C/C=C(\C)CCC(=O)OCCN1CCOCC1)C(=O)OC2 [Mycophenolate Mofeit, Mycophenolate mofetil] | Nil |  |
| CS(=O)(=O)c1ccc(C2=C(c3ccccc3)C(=O)OC2)cc1 [Rofecoxib] | Negligible |  |
| Cc1onc(-c2ccccc2Cl)c1C(=O)N[C@@H]1C(=O)N2[C@@H]1SC(C)(C)[C@@H]2C(=O)O [Cloxacillin] | 95% |  |

Source: patent US7070814B2, “Bioavailability / bioefficacy enhancing activity of Cuminum cyminum and extracts and fractions thereof” (Council of Scientific and Industrial Research, priority 2002, dated 2006)
